Results on 32 compounds are retold here after patent publication US20230391752A1, “PYRROLIDINE-3-CARBOXAMIDE DERIVATIVES AND RELATED USES” (Chulalongkorn University, priority 2020, published 2023).

The subject of the test is HBV. Put plainly: In vitro anti-HBV activity in HepG2.2.15 cell line (intracellular HBV DNA by qPCR at 1 μM). As to conditions: Hepatitis B virus, 144 h; HepG2.2.15 cells, 1 μM compound, 6 days, intracellular HBV DNA as percentage compared to vehicle control (0.5% DMSO). The format is cell-based. The method, then:
The stable transfected HBV cell line, called HepG2.2.15 cells was a valuable model with high reproducibility and commonly used for drug screening. To identify the anti-HBV activity, HepG2.2.15 cells were seeded at 5×10^5 cells/well with high glucose Dulbecco's modified Eagle medium (DMEM) containing 10% heat inactivated fetal bovine serum (FBS), 300 mg/L G418, non-essential amino acids (NEAA) 100 units/ml Antibiotic-Antimycotic, and allowed to stand for an overnight in an incubator set at 37° C. and 5% C02. HepG2.2.15 cells in each well were treated with the medium containing a compound (1 μM with 0.5% dimethyl sulfoxide (DMSO final concentration) for three days in the incubator. After that the medium was removed and fresh medium containing the compound was added to the cells for another 3 days. After 6 days of treatment, intracellular HBV DNA was extracted and determined by using quantitative real-time PCR (qPCR) technique with specific primers. Intrahepatic HBV DNA viral load was reported as percentage compared to vehicle control (0.5% DMSO) as shown in Table A.
“B” means % ranging between 80 and 90; “C” means % ranging between 70 and 80; “D” means % ranging between 60 and 70; “E” means % ranging between 45 and 60, “F” means %<45.
For orientation: Real-time PCR tracks product formation cycle by cycle.

On to `Cc1ccc(C(=O)N2CC[C@H](C(=O)Nc3cc(F)c(F)c(F)c3)C2)[nH]1` [Example 1, (S)-1-(5-methyl-1H-pyrrole-2-carbonyl)-N-(3,4,5-trifluorophenyl)pyrrolidine-3-carboxamide], for which the activity at 1 µM lay in the range of 45 to 60%.

`O=C(Nc1cc(F)c(F)c(F)c1)[C@H]1CCN(C(=O)c2sccc2Cl)C1` [Example 3, (S)-1-(3-chlorothiophene-2-carbonyl)-N-(3,4,5-trifluorophenyl)pyrrolidine-3-carboxamide] registered an activity at 1 µM of 70 to 80%.

Compound `Cc1cc(Cl)c(C(=O)N2CC[C@H](C(=O)Nc3cc(F)c(F)c(F)c3)C2)s1` [Example 5, (S)-1-(3-chloro-5-methylthiophene-2-carbonyl)-N-(3,4,5-trifluorophenyl)pyrolidine-3-carboxamide] showed an activity at 1 µM of 80 to 90%.

Take `O=C(Nc1cc(F)c(F)c(F)c1)[C@H]1CCN(C(=O)c2cccc3cc[nH]c23)C1` [Example 6, (S)-1-(1H-indole-7-carbonyl)-N-(3,4,5-trifluorophenyl)pyrrolidine-3-carboxamide]: the activity at 1 µM was > 90%.

Turning to `O=C(Nc1cc(F)c(F)c(F)c1)[C@H]1CCN(C(=O)c2cc3sccc3[nH]2)C1` [Example 7, (S)-1-(4H-thieno[3,2-b]pyrrole-5-carbonyl)-N-(3,4,5-trifluoro-phenyl)pyrrolidine-3-carboxamide], the activity at 1 µM was 60 to 70%.

`N#Cc1ccc2[nH]c(C(=O)N3CC[C@H](C(=O)Nc4cc(F)c(F)c(F)c4)C3)cc2c1` [Example 8, (S)-1-(5-cyano-1H-indole-2-carbonyl)-N-(3,4,5-trifluorophenyl)pyrrolidine-3-carboxamide] registered an activity at 1 µM of 80 to 90%.

`O=C(Nc1cc(F)c(F)c(F)c1)[C@H]1CCN(C(=O)c2cc3occc3[nH]2)C1` [Example 9, (S)-1-(4H-furo[3,2-b]pyrrole-5-carbonyl)-N-(3,4,5-trifluorophenyl)pyrrolidine-3-carboxamide] had an activity at 1 µM of 80 to 90%.

As to `O=C(Nc1cc(F)c(F)c(Br)c1)[C@H]1CCN(C(=O)c2cc3ccccc3[nH]2)C1` [Example 10, (S)—N-(3-bromo-4,5-difluorophenyl)-1-(1H-indole-2-carbonyl)pyrrolidine-3-carboxamide], the activity at 1 µM lay in the range of 70 to 80%.

As to `O=C(Nc1cc(F)c(F)c(F)c1)[C@H]1CCN(C(=O)c2ccc(C(F)F)[nH]2)C1` [Example 11, (S)-1-(5-(difluoromethyl)-1H-pyrrole-2-carbonyl)-N-(3,4,5-trifluorophenyl)pyrrolidine-3-carboxamide], the activity at 1 µM is 70 to 80%.

Consider `COc1cc2cc(C(=O)N3CC[C@H](C(=O)Nc4cc(F)c(F)c(F)c4)C3)[nH]c2cn1` [Example 12, (S)-1-(5-methoxy-1H-pyrrolo[2,3-c]pyridine-2-carbonyl)-N-(3,4,5-trifluorophenyl)pyrrolidine-3-carboxamide], for which the activity at 1 µM was in the range of 80 to 90%.

In turn, `Cc1ccc2cc(C(=O)N3CC[C@H](C(=O)Nc4cc(F)c(F)c(F)c4)C3)[nH]c2c1` [Example 13, (S)-1-(6-methyl-1H-indole-2-carbonyl)-N-(3,4,5-trifluorophenyl)pyrrolidine-3-carboxamide] had an activity at 1 µM of 60 to 70%.

For the compound `O=C(Nc1cc(F)c(F)c(F)c1)[C@H]1CCN(C(=O)c2cc3ncccc3[nH]2)C1` [Example 14, (S)-1-(1H-pyrrolo[3,2-b]pyridine-2-carbonyl)-N-(3,4,5-trifluorophenyl)pyrrolidine-3-carboxamide], the activity at 1 µM was in the range of 70 to 80%.

As to `Cc1cc(C(=O)N2CC[C@H](C(=O)Nc3cc(F)c(F)c(F)c3)C2)[nH]c1C` [Example 15, (S)-1-(4,5-dimethyl-1H-pyrrole-2-carbonyl)-N-(3,4,5-trifluorophenyl)pyrrolidine-3-carboxamide], the activity at 1 µM fell in the range of 60 to 70%.

For the compound `O=C(Nc1cc(F)c(F)c(F)c1)[C@H]1CCN(C(=O)c2[nH]ccc2Cl)C1` [Example 16, (S)-1-(3-chloro-1H-pyrrole-2-carbonyl)-N-(3,4,5-trifluorophenyl)pyrrolidine-3-carboxamide], the activity at 1 µM was > 90%.

`C[C@H]1[C@@H](C(=O)Nc2cc(F)c(F)c(F)c2)CCN1C(=O)c1cc2cccnc2[nH]1` [Example 17, (2S,3S)-2-methyl-1-(1H-pyrrolo[2,3-b]pyridine-2-carbonyl)-N-(3,4,5-trifluorophenyl) pyrrolidine-3-carboxamide] returned an activity at 1 µM of 60 to 70%.

Regarding `N#Cc1cc(NC(=O)[C@H]2CCN(C(=O)c3cc4cccnc4[nH]3)C2)ccc1F` [Example 18, (S)—N-(3-cyano-4-fluorophenyl)-1-(1H-pyrrolo[2,3-b]pyridine-2-carbonyl)pyrrolidine-3-carboxamide], the activity at 1 µM fell in the range of 70 to 80%.

For the compound `C[C@H]1[C@@H](C(=O)Nc2ccc(F)c(C#N)c2)CCN1C(=O)c1cc2cccnc2[nH]1` [Example 21, (2S,3S)—N-(3-cyano-4-fluorophenyl)-2-methyl-1-(1H-pyrrolo[2,3-b]pyridine-2-carbonyl) pyrrolidine-3-carboxamide], the activity at 1 µM is > 90%.

Consider `N#Cc1cc(NC(=O)[C@H]2CCN(C(=O)c3ccc(Cl)[nH]3)C2)ccc1F` [Example 22, (S)-1-(5-chloro-1H-pyrrole-2-carbonyl)-N-(3-cyano-4-fluorophenyl)pyrrolidine-3-carboxamide], for which the activity at 1 µM was 60 to 70%.

As to `O=C(Nc1cc(F)c(F)c(F)c1)[C@H]1CCN(C(=O)c2cc3nccnc3[nH]2)C1` [Example 23, (S)-1-(5H-pyrrolo[2,3-b]pyrazine-6-carbonyl)-N-(3,4,5-trifluorophenyl)pyrrolidine-3-carboxamide], the activity at 1 µM lay within 70 to 80%.

`Cc1cc(NC(=O)[C@H]2CCN(C(=O)c3cc4cccnc4[nH]3)C2)ccc1F` [Example 24, (S)—N-(4-fluoro-3-methylphenyl)-1-(1H-pyrrolo[2,3-b]pyridine-2-carbonyl)pyrrolidine-3-carboxamide] gave an activity at 1 µM of 60 to 70%.

In turn, `O=C(Nc1cc(F)c(F)c(F)c1)[C@H]1CCN(C(=O)c2nc3ccccc3[nH]2)C1` [Example 25, (S)-1-(1H-benzo[d]imidazole-2-carbonyl)-N-(3,4,5-trifluorophenyl)pyrrolidine-3-carboxamide] came in with an activity at 1 µM of 60 to 70%.

As for `O=C(Nc1cc(F)c(F)c(F)c1)[C@H]1CCN(C(=O)c2c[nH]c3ccccc23)C1` [Example 26, (S)-1-(1H-indole-3-carbonyl)-N-(3,4,5-trifluorophenyl)pyrrolidine-3-carboxamide], the activity at 1 µM was 80 to 90%.

For `O=C(Nc1cc(F)c(F)c(F)c1)[C@H]1CCN(C(=O)c2ncc[nH]2)C1` [Example 27, (S)-1-(1H-imidazole-2-carbonyl)-N-(3,4,5-trifluorophenyl)pyrrolidine-3-carboxamide], the activity at 1 µM was > 90%.

With `O=C(Nc1cc(F)c(F)c(F)c1)[C@H]1CCN(C(=O)c2nccs2)C1` [Example 28, (S)-1-(thiazole-2-carbonyl)-N-(3,4,5-trifluorophenyl)pyrrolidine-3-carboxamide], the activity at 1 µM was > 90%.

On to `Cc1c[nH]nc1C(=O)N1CC[C@H](C(=O)Nc2cc(F)c(F)c(F)c2)C1` [Example 29, (S)-1-(4-methyl-1H-pyrazole-3-carbonyl)-N-(3,4,5-trifluorophenyl)pyrrolidine-3-carboxamide], for which the activity at 1 µM was > 90%.

As for `O=C(Nc1cc(F)c(F)c(F)c1)[C@H]1CCN(C(=O)c2cnc[nH]2)C1` [Example 30, (S)-1-(1H-imidazole-5-carbonyl)-N-(3,4,5-trifluorophenyl)pyrrolidine-3-carboxamide], the activity at 1 µM was > 90%.

For the compound `Cc1n[nH]cc1C(=O)N1CC[C@H](C(=O)Nc2cc(F)c(F)c(F)c2)C1` [Example 31, (S)-1-(3-methyl-1H-pyrazole-4-carbonyl)-N-(3,4,5-trifluorophenyl)pyrrolidine-3-carboxamide], the activity at 1 µM is > 90%.

For `O=C(Nc1ccc(F)c(Cl)c1)[C@H]1CCN(C(=O)c2ncc[nH]2)C1` [Example 32, (S)—N-(3-chloro-4-fluorophenyl)-1-(1H-imidazole-2-carbonyl)pyrrolidine-3-carboxamide], the activity at 1 µM was 80 to 90%.

Consider `Cc1ccc(C(=O)N2CC[C@H](C(=O)Nc3ccc(F)c(Cl)c3)C2)[nH]1` [Example 33, (S)—N-(3-chloro-4-fluorophenyl)-1-(5-methyl-1H-pyrrole-2-carbonyl)pyrrolidine-3-carboxamide], for which the activity at 1 µM is 80 to 90%.

For `Cc1cc(C)c(C(=O)N2CC[C@H](C(=O)Nc3cc(F)c(F)c(F)c3)C2)[nH]1` [Example 34, (S)-1-(3,5-dimethyl-1H-pyrrole-2-carbonyl)-N-(3,4,5-trifluorophenyl)pyrrolidine-3-carboxamide], the activity at 1 µM is > 90%.

As to `O=C(Nc1cc(F)c(F)c(F)c1)[C@H]1CCN(C(=O)c2ccc3cc[nH]c3c2)C1` [Example 35, (S)-1-(1H-indole-6-carbonyl)-N-(3,4,5-trifluorophenyl)pyrrolidine-3-carboxamide], the activity at 1 µM fell in the range of 70 to 80%.

As for `O=Cc1c[nH]c2cc(C(=O)N3CC[C@H](C(=O)Nc4cc(F)c(F)c(F)c4)C3)ccc12` [Example 36, (S)-1-(3-formyl-1H-indole-6-carbonyl)-N-(3,4,5-trifluorophenyl)pyrrolidine-3-carboxamide], the activity at 1 µM was 70 to 80%.
